Article PMC11337205, “Unraveling Interspecies Differences in the Phase I Hepatic Metabolism of Alternariol and Alternariol Monomethyl Ether: Closing Data Gaps for a Comprehensive Risk Assessment” (Chemical Research in Toxicology, 2024)

Legend:
[1] = Phase I metabolism kinetics (parent toxin loss) in NADPH-fortified porcine liver microsomes, LC-MS/MS; assay type: in vitro ADME, pig; settings: for microsomal CLint: Large White, pH 7.4, porcine LMs, read-out: CLint (intrinsic clearance)
Procedure: (§1) Pooled human LMs and pooled Sprague–Dawley rat hepatic microsomes, both originating from male donors, were purchased from Sigma-Aldrich (St. Louis, MO, USA) and Gibco, Thermo Fisher Scientific (Waltham, MA, USA), respectively. Porcine LMs were prepared according to an in-house-developed protocol based on the publication of Knights et al.[32] The liver of an approximately four-month-old female “Large White” (or “German Edelschwein”) pig was obtained from a local slaughterhouse. After slaughtering, the liver was placed on ice for about an hour, kept in ice-cold 50 mM tris(hydroxymethyl)aminomethane hydrochloride (Tris–HCl) (pH 7.4) for an additional hour while being transported, and processed immediately.
(§2) The kinetics of the phase I metabolism of AOH and AME was investigated by incubating human, rat (both 1 mg protein/mL), and porcine LMs (2 mg protein/mL) with 1, 10, 20, 50, and 100 μM AOH or 1, 10, 20, and 50 μM AME based on the protocol by Al-Subeihi et al.[34] The incubation solution contained a final concentration of 3 mM NADPH and 1 mM ascorbic acid in 200 mM Tris–HCl (pH 7.4). After preincubation (37 °C, 1 min, mixing at 250–300 rpm), the toxin stock was added in a 1:100 dilution, resulting in a total DMSO content of 1% and the desired toxin concentration. DMSO was selected for this assay because it is the least inhibitory of the solvents studied by Busby et al. on CYP1A1,[35] the primary enzyme involved in the hydroxylation of AOH and AME.[26] The well-established solubility of the test compounds in DMSO and DMSO-containing aqueous buffers facilitated laboratory work and ensured consistency with existing literature, thereby improving the comparability of results across studies, including those of Pfeiffer and colleagues.[25] In a preliminary investigation, incubation times of 5 and 10 min were chosen because they fall within the linear range of the transformation rate–time relationship, thereby ensuring initial rate conditions (Figure S1). When the selected incubation time (0–10 min) passed, one part of the sample was pipetted into two parts of ice-cold extraction solvent (acetonitrile–methanol, 1:1, v/v) for reaction termination. Subsequently, the samples were placed into the freezer (−20 °C) for at least an hour, centrifuged (15 min, 18,000g, 4 °C), and further diluted in methanol–water (3:7, v/v) prior to LC–MS measurements. In the solvent control, the toxin was substituted with DMSO in the incubation solution. Control incubations were performed without the cofactor NADPH or with heat-inactivated microsomes (98 °C, 10 min, mixing at 300 rpm).
(§3) The quantification of selected analytes using external calibration (MS parameters listed in Supporting Information Table S1) was conducted on a high-performance liquid chromatographic system (Dionex UltiMate 3000 UHPLC, Dionex Softron GmbH, Germering, Germany) coupled to a triple quadrupole mass spectrometer (TSQ Vantage, Thermo Fisher Scientific, Waltham, MA, USA), equipped with a heated electrospray ionization (ESI) interface. The applied analytical method is based on Puntscher et al.[28],[36] with slight modifications, which are specified below.
(§4) In brief, the Ascentis Express C18 column (10 cm × 2.1 mm, 2.7 μm, Supelco, Munich, DE), equipped with the Phenomenex SecurityGuard (C18 Cartridges, 4 × 2.0 mm ID, Phenomenex Ltd. Deutschland, Aschaffenburg, Germany), served as the stationary phase. Eluent A was aqueous ammonium acetate (5 mM, pH adjusted to 8.6 with a 25% ammonia solution), and eluent B was methanol. During the first minute, the column was kept at 30% eluent B. Subsequently, the eluent B content was linearly raised to 100% within 6 min. Thereafter, the column was washed with 100% eluent B for 1.5 min. Lastly, the column was re-equilibrated at the initial conditions, reaching an overall run time of 10 min. The autosampler compartment was kept at 10 °C, while the column oven temperature was maintained at 30 °C. […]

[2] = Phase I metabolism kinetics (parent toxin loss) in NADPH-fortified human liver microsomes, LC-MS/MS; assay type: in vitro ADME; settings: for microsomal CLint: human, pH 7.4, human LMs, read-out: CLint (intrinsic clearance)
Procedure: as §1, §2, §3, §4

[3] = Pattern of oxidative metabolites in porcine LMs by HR-MS; assay type: in vitro ADME, pig; settings: porcine LMs incubated with AME
Procedure: as §2
Pooled high-resolution MS (HR-MS) samples were analyzed on a Vanquish UHPLC system (Thermo Fisher Scientific, Waltham, MA, USA) connected to a dual-pressure linear trap-quadrupole Orbitrap mass analyzer (Velos ETD, Thermo Fisher Scientific, Waltham, MA, USA). The heated ESI interface (source heater temperature: 400 °C) was operated in both positive and negative modes. The mobile and stationary phases were the same as those for the targeted analysis. The column compartment temperature was kept at 40 °C. A multistep gradient was applied at a flow rate of 0.4 mL/min and started with rinsing the column for 1 min at 10% eluent B. Then, the organic content was linearly raised to 100% until the 11th minute. Subsequently, the column was purged with 100% eluent B for two additional minutes. Finally, the initial eluent composition was reset between minutes 13 and 13.5, followed by a 2 min re-equilibration under these conditions, resulting in a total run time of 15.5 min. Data acquisition and evaluation were performed with the software Skyline (v. 21.1.0.146, MacCoss Lab, Department of Genome Sciences, University of Washington, Seattle, WA, USA), XCalibur (v. 2.2SP1.48), and Chromeleon (v. 7.2.6.; both Thermo Fisher Scientific, Waltham, MA, USA).
As no analytical standards are currently available for the hydroxy (OH) metabolites of AOH and AME, an Alternaria reference mixture containing 4-OH-AOH and 4-OH-AME was used to enable associating peaks with their respective phase I metabolites.

[4] = Pattern of oxidative metabolites in human LMs by HR-MS; assay type: in vitro ADME; settings: human LMs incubated with AME
Procedure: as §2
Pooled high-resolution MS (HR-MS) samples were analyzed on a Vanquish UHPLC system (Thermo Fisher Scientific, Waltham, MA, USA) connected to a dual-pressure linear trap-quadrupole Orbitrap mass analyzer (Velos ETD, Thermo Fisher Scientific, Waltham, MA, USA). The heated ESI interface (source heater temperature: 400 °C) was operated in both positive and negative modes. The mobile and stationary phases were the same as those for the targeted analysis. The column compartment temperature was kept at 40 °C. A multistep gradient was applied at a flow rate of 0.4 mL/min and started with rinsing the column for 1 min at 10% eluent B. Then, the organic content was linearly raised to 100% until the 11th minute. Subsequently, the column was purged with 100% eluent B for two additional minutes. […]

[5] = oral exposure, radiolabeled AOH, male NMRI mice; cited from earlier work
[6] = Caco-2 cell monolayers; cited from earlier work

Compound `Cc1cc(O)cc2oc(=O)c3c(O)cc(O)cc3c12` [AOH, alternariol] has a Km ([1]; female, Large White (German Edelschwein), pig, liver microsomes, pH 7.4, porcine LMs 2 mg protein/mL, NADPH, within 10 min, Michaelis–Menten model, read-out: Km (Michaelis constant)) of 672 µM, a microsomal CLint ([1]; female, pig, liver microsomes, Michaelis–Menten model, ratio Vmax/Km) of 8.52 µL/min/mg and a microsomal CLint ([1]; female, pig, liver microsomes, linear regression, lower concentration range) of 6.56 µL/min/mg. For the same compound, the Concentration decrease ([1]; porcine LMs, 1 µM toxin, 5 min) was 20%, the Concentration decrease ([1]; porcine LMs, 1 µM toxin, 10 min) was 47% and the Concentration decrease ([1]; porcine LMs, 10 µM toxin, 5 min) was 6%. It also gave a Concentration decrease ([1]; porcine LMs, 10 µM toxin, 10 min) of 16%, a Concentration decrease ([1]; porcine LMs, 20 µM toxin, 5 min) of 2% and a Concentration decrease ([1]; porcine LMs, 20 µM toxin, 10 min) of 15%. It also gave a Concentration decrease ([1]; porcine LMs, 50 µM toxin, 5 min) of 11%, a Concentration decrease ([1]; porcine LMs, 50 µM toxin, 10 min) of 14% and a Concentration decrease ([1]; porcine LMs, 100 µM toxin, 5 min) of 12%. For the same compound, the Concentration decrease ([1]; porcine LMs, 100 µM toxin, 10 min) was 14%, the “Vmax (maximum transformation rate)” value ([1]; porcine LMs, within 10 min, Michaelis–Menten model) was 5730 pmol/mg/min and the Concentration decrease ([2]; human LMs, 1 µM toxin, 5 min) was 28%. It also gave a Concentration decrease ([2]; human LMs, 1 µM toxin, 10 min) of 53%, a Concentration decrease ([2]; human LMs, 10 µM toxin, 5 min) of 11% and a Concentration decrease ([2]; human LMs, 10 µM toxin, 10 min) of 17%. It also gave a Concentration decrease ([2]; human LMs, 20 µM toxin, 5 min) of 10%, a Concentration decrease ([2]; human LMs, 20 µM toxin, 10 min) of 20% and a Concentration decrease ([2]; human LMs, 50 µM toxin, 5 min) of 12%. It also gave a Concentration decrease ([2]; human LMs, 50 µM toxin, 10 min) of 22%, a Concentration decrease ([2]; human LMs, 100 µM toxin, 5 min) of 20% and a Concentration decrease ([2]; human LMs, 100 µM toxin, 10 min) of 39%. For the same compound, the “Vmax (maximum transformation rate)” value ([2]; human LMs, within 10 min, Michaelis–Menten model) was 3370 pmol/mg/min, the microsomal CLint ([2]; male, liver microsomes, Michaelis–Menten model, ratio Vmax/Km) was 25.8 µL/min/mg and the microsomal CLint ([2]; male, liver microsomes, linear regression, lower concentration range) was 19.9 µL/min/mg. For the same compound, the Km ([2]; male, liver microsomes, pH 7.4, human LMs 1 mg protein/mL, NADPH, within 10 min, Michaelis–Menten model, read-out: Km (Michaelis constant)) was 131 µM, the “relative abundance among phase I metabolites (in words)” value [3] was “one of the main metabolites” and the “relative abundance among phase I metabolites (in words)” value [4] was “small amounts”. For the same compound, the bioavailability [5] was “less than 10%” and the intestinal absorption [6] was “limited intestinal absorption”.
